Data: patent US20220233556A1, “COMPOSITIONS AND METHODS FOR TREATING OPHTHALMIC CONDITIONS” (Medicon Pharmaceuticals, Inc., priority 2017, published 2022)

Assays:
Con A-induced dry eye = Con A-induced dry eye disease (DED) in rabbits: TBUT, tear osmolarity, STT, tear lactoferrin; type: in vivo, New Zealand White (NZW) rabbits; conditions: 1 week of treatment, comparison with ophthalmic NSAIDs (FIG. 5)
Experimental: Con A was injected under ultrasound guidance into all the lacrimal glands and the success of the injection was verified by a post-injection ultrasound image (see FIG. 1 and FIG. 2). […] This variation explains why the blind injections recommended in the original method are often unsuccessful. This was confirmed by mixing the Con A solution with methylene blue and tracking its course after injection. In about ⅓ of the cases, Con A ended up outside the gland.
Four parameters of efficacy were evaluated instead of the usual one or two. They include (a) the tear break up time (TBUT), determined using 0.2% fluorescein over the eye and recording the time taken to develop black dots, lines or obvious disruption of the fluorescein film; (b) tear osmolarity, measured using TearLab Osmolarity Test and following the manufacturer's instructions (TearLab Corp., San Diego, Calif.); (3) Schirmer tear test (STT), determined using Schirmer strips (EagleVision, Denville, N.J.) inserted between the cornea and the palpebral conjunctiva at the mid-point of the lower lid and measuring the length of moistened strip at 5 min; and (4) tear lactoferrin levels measured by ELISA kit (MyBiosource, San Diego, Calif.) following the instructions of the manufacturer. All four have been used in clinical practice and correlate with the clinical activity of the disease. The STT is the least reliable and, as result, it is clinically used less than half as frequently as TBUT.
The injections of Con A to the lacrimal glands were repeated weekly as needed. When longer than a 1-week periods of study are needed, repeat injections prolong dry eye for at least 3 weeks, making the originally acute model chronic.
PS Suppresses Con A—Induced Dry Eye in Rabbits. The effect of PS on dry eye was determined in New Zealand White (NZW) rabbits, 2-3 kg (Charles River Labs, Waltham, Mass.). These rabbits were housed singly in rooms with strict temperature (70±5° F.) and humidity (45±5%) control and acclimated for at least 2 weeks prior to induction of dry eye by injection of Con A as above. NZW rabbits with Con A-induced dry eye (three sets of injections) were treated with PS formulated as nanoparticles and administered topically as eye drops 3×/day for 21 days, starting on the day of Con A injection. […] Similar results were obtained on days 5 and 14 (data not shown). […]
The efficacy of lower concentrations of PS. The efficacy of lower concentrations of PS, 0.1% and 0.2% in DED, was also evaluated. The same animal model (rabbits with Concanavalin A-induced DED) was used. The same methodology described herein was followed, except that PS was administered as two eye drops per eye (˜25 μL each) four times a day. PS was formulated in: 10% (2-hydroxypropyl)-β-cyclodextrin, 4% Tween 80, 2.5% Vitamin E TPGS, 1.4% polyvinyl alcohol (13,000-26,000 molecular weight), 0.001% polyquad, as described herein. The Table below summarizes the corresponding findings: […]

MMPs = assay: MMP activity in the cornea of rabbits; type: in vivo; conditions: naïve rabbits, topical, 1 h
Experimental: FIGS. 8A and 8B illustrate that PS suppresses the levels and activity of MMPs. In FIG. 8A, the human conjunctival cells were treated with PS at 1×IC50 (TNF-α was added to the culture medium at a concentration of 10 ng/ml 2 h after PS. The levels of MMP-1 in the culture medium were determined by ELISA as in Methods (n=3). Values=mean±SEM. In FIG. 8B, two groups of rabbits with Con A-induced DED were treated with vehicle or PS for 1 week as in Methods. Naïve rabbits served as controls. MMP-9 levels in the ILG (top) and the aqueous humor (middle) were determined by ELISA. MMP activity was determined in the cornea of naïve and PS- or ketorolac-treated rabbits with Con A-induced DED as previously. n=8 eyes/group. Values=mean±SEM.
In an acute experiment, naïve rabbits were treated with either PS or ketorolac (both administered topically) for 1 h and determined the activity of MMP in the cornea. This assay determines the activity of MMPs collectively in a given tissue.

PGE2 = PGE2 levels in tears and cornea of rabbits (ELISA); type: in vivo; conditions: rabbits with Con A-induced DED, administered once topically, 1 h later
Experimental: FIGS. 9A and 9B illustrate that PS preserves the levels of PGE2 in tears and the cornea. In FIG. 9A, PGE2 levels were determined by ELISA in tears collected on day 7 from naïve rabbits and rabbits with Con A-induced DED treated for 1 week with vehicle or PS. In FIG. 9B, PGE2 levels were further examined. Upper panel: PGE2 levels in the tears of naïve rabbits and rabbits with Con A-induced DED treated for 1 h with PS or ketorolac as in Methods. Lower panel: PGE2 levels in the corneal tissue of naïve rabbits and rabbits with Con A-induced DED treated for 1 week with vehicle or PS or ketorolac or diclofenac. n=8 eyes/group. Values=mean±SEM.
It was determined that the levels of PGE2 in rabbit tears in three groups of rabbits, naïve and those with Con A-induced DED that were treated for 1 week either with PS or vehicle.
In an acute experiment, administered once topically to the eyes of four groups of rabbits with Con A-induced DED was one of the following: vehicle, PS, ketorolac or diclofenac; the latter two are NSAIDs used for the treatment of ocular inflammation and pain. It was determined that the levels of PGE2 in the cornea of these rabbits obtained 1 h later as well as in the corneas of naïve rabbits.

corneal sensitivity = assay: Corneal touch threshold (CTT) assay, Cochet-Bonnet aesthesiometer; type: in vivo, rabbits; conditions: commercially available form, one eye drop
Experimental: FIGS. 10A and 10B illustrate the ocular analgesic effect of PS. FIG. 10A: One drop of PS 0.5%, vehicle, or lidocaine was applied to one eye of rabbits (n=4/group) and the corneal touch threshold (CTT) was determined using an Eshesiometer. Vehicle had no effect on CTT (not shown; overlaps with the 0 value horizontal line). Values=mean±SEM. FIG. 10B: PS 0.5% in formulations differing in pH as indicated produced different analgesic responses in rabbits. The areas under each curve (AUC), indicted in the figure, that quantify these responses vary by as much as >5 fold. Values are the average of 2; all were within 11% of each other.
FIGS. 11A and 11B illustrates the effect of various concentrations of PS on corneal sensitivity determined by the corneal touch threshold (CTT) assay. The CTT score is expressed as length of filament. Measurements were performed at the indicated time points after a single application of PS as an eye drop. Rabbits with normal or dry eyes were studied (n=6 eyes per group). Dry eyes were induced by Concanavalin A injection as described in the text. The % PS content in each study is shown. The numbers in parentheses indicate the corresponding value of the area under the curve. Values=mean±SEM.
FIGS. 12A and 12B illustrate the effect of various drugs on corneal sensitivity determined by the corneal touch threshold (CTT) assay described herein. Each drug was used in its commercially available form; one eye drop of each was applied. The numbers in parentheses indicate the corresponding value of the area under the curve. Values=mean±SEM.
The analgesic effect of PS was examined on the surface of the eye by determining the corneal touch threshold (CTT) using the Luneau Cochet-Bonnet Aesthesiometer (Western Ophthalmics, Lynwood, Wash.) an adjustable nylon monofilament with a defined diameter, which is applied in different lengths to the center of the cornea.
In this embodiment, the composition of the PS preparation was: 0.5% PS, 18% (2-hydroxypropyl)-β-cyclodextrin (HP-β-CD), 1-4% Tween 80. Preparation Method: HP-β-CD was dissolved in purified water maintained in a 50° C. water bath. PS was added into this solution and kept at 50° C. overnight with stirring at 500 rpm until PS was fully dissolved. Tween 80 was added into the PS HP-β-CD solution, which was then centrifuged at 3000 rpm for 10 min to remove undissolved particles. The supernatant was collected and pH was adjusted to the desired value using a NaOH solution. The analgesic effect of PS was examined as above.
The effect of PS and other compounds on corneal sensitivity was determined in rabbits with normal or dry eyes using the CTT assay as above; DED was induced by Concanavalin A as previously described. The CTT score, expressed as filament length in mm, of normal eyes was 5.56±0.11 mm (mean±SEM for this and subsequent values) and in dry eyes 4.17±0.12 mm; the difference between the two is statistically significant (p<0.0001).

O=C(c1ccccc1)c1ccc2n1CCC2C(=O)O (stereo not shown) [ketorolac, reference compound]
STT (Con A-induced dry eye): failed to improve
TBUT (Con A-induced dry eye): failed to improve
osmolarity (Con A-induced dry eye): failed to improve
suppression of the activity of MMPs in the cornea (MMPs): failed to affect
PGE2 levels in the cornea (PGE2): suppressed nearly completely
effect on corneal sensitivity (CTT), dry eyes (corneal sensitivity): no analgesic effect
effect on corneal sensitivity (CTT), normal eyes (corneal sensitivity): display analgesic efficacy
